Laboratory results: ChEMBL document CHEMBL1681641, “Discovery of substituted phenyl urea derivatives as novel long-acting β2-adrenoreceptor agonists” (Bioorg Med Chem Lett, 2011)
Values after ≈ are worked out from the molar mass of the structure shown.

Key:
[1] = target: Beta-2 adrenergic receptor (Cavia porcellus, UniProt Q8K4Z4); assay: Agonist activity at beta2 adrenoceptor in guinea pig tracheal rings assessed as relaxation of tracheal smooth muscle; format: functional, tissue-based, Trachea
[2] = target: Beta-1 adrenergic receptor (Rattus norvegicus, UniProt P18090); assay: Agonist activity at beta1 adrenoceptor in rat left atria assessed as induction of ionotropic effect; format: functional
Cavia porcellus [3] = assay: Bronchocoprotective activity in guinea pig assessed as inhibition of acetylcholine-induced bronchoconstriction administered by aerosol after 4 hrs; format: functional, organism-based
Cavia porcellus [4] = assay: Bronchocoprotective activity in guinea pig assessed as inhibition of acetylcholine-induced bronchoconstriction administered by aerosol after 24 hrs; format: functional, organism-based
[5] = Bronchodialatory activity in guinea pig trachea assessed as tone recovery measured after 1 hr of drug washout; format: functional, Cavia porcellus; set-up: concentration or dose not given beside the values

Sequence of Beta-2 adrenergic receptor (Q8K4Z4 whole entry): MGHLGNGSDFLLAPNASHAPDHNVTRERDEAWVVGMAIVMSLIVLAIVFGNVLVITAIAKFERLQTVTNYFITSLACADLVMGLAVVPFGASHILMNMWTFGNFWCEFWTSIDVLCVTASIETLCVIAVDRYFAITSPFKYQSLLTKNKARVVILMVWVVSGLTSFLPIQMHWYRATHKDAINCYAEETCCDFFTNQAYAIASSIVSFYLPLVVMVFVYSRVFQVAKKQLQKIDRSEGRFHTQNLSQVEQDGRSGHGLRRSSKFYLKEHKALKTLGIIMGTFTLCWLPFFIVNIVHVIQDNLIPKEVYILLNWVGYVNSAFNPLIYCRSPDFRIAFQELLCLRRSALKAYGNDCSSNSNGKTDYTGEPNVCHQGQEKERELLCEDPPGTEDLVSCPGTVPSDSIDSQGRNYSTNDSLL
Sequence of Beta-1 adrenergic receptor (P18090 whole entry): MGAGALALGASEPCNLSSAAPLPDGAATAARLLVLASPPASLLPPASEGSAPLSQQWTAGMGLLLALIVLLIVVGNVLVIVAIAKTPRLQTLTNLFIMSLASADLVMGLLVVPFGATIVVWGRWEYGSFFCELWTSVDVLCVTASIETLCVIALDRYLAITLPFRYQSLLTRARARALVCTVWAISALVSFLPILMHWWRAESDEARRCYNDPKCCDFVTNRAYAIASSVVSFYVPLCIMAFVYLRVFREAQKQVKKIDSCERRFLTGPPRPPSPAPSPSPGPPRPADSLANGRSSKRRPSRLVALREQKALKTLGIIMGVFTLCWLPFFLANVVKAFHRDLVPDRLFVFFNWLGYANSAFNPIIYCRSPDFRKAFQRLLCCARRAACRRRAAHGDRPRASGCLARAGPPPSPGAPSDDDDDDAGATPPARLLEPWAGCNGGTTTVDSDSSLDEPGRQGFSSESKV

| Compound | EC50 [1] | EC50 [2] | IC50 (Cavia porcellus [3]) | IC50 (Cavia porcellus [4]) | Activity [5] |
| --- | --- | --- | --- | --- | --- |
| COc1ccccc1CNC(=O)Nc1cccc(CCNCC(O)c2ccc(O)c3[nH]c(=O)ccc23)c1 (stereo unspecified) | 0.2 nM | 550 nM | – | – | 23% |
| O=C(NCc1ccc(F)cc1)Nc1cccc(CCNCC(O)c2ccc(O)c3[nH]c(=O)ccc23)c1 (stereo unspecified) | 0.2 nM | 6300 nM | – | – | 16% |
| O=C(NCc1c(Cl)cccc1Cl)Nc1cccc(CCNCC(O)c2ccc(O)c3[nH]c(=O)ccc23)c1 (stereo unspecified) | 0.2 nM | 1600 nM | 4 µg/mL (≈ 7.39 µM) | > 100 µg/mL | 4% |
| O=C(Nc1cccc(CCNCC(O)c2ccc(O)c3[nH]c(=O)ccc23)c1)NC(c1ccccc1)c1ccccc1 (stereo unspecified) | 0.2 nM | 8890 nM | 1 µg/mL (≈ 1.82 µM) | 1.5 µg/mL (≈ 2.73 µM) | 2% |
| O=C(Nc1cccc(CCNCC(O)c2ccc(O)c3[nH]c(=O)ccc23)c1)Nc1ccccc1-c1ccccc1 (stereo unspecified) | 0.7 nM | 5770 nM | 3 µg/mL (≈ 5.61 µM) | 7 µg/mL (≈ 13.1 µM) | 4% |
| O=C(NCC12CC3CC(CC(C3)C1)C2)Nc1cccc(CCNCC(O)c2ccc(O)c3[nH]c(=O)ccc23)c1 (stereo unspecified) | 3.2 nM | 296 nM | – | – | 8% |
| O=C(Nc1cccc(CCNCC(O)c2ccc(O)c3[nH]c(=O)ccc23)c1)Nc1cccc(Oc2ccccc2)c1 (stereo unspecified) | 1 nM | 10000 nM | – | – | 0% |
| CC(C)(C)c1ccc(CNC(=O)Nc2cccc(CCNCC(O)c3ccc(O)c4[nH]c(=O)ccc34)c2)cc1 (stereo unspecified) | 0.9 nM | – | – | – | 5% |
| NC(=O)C(c1ccccc1)(c1ccccc1)[C@@H]1CCN(CCc2ccc3c(c2)CCO3)C1 [DARIFENACIN] | 1 nM | 2310 nM | 5 µg/mL (≈ 11.7 µM) | 12 µg/mL (≈ 28.1 µM) | 0% |

Further compounds by falling EC50 [1], results first:

| EC50 [1] | EC50 [2] | IC50 (Cavia porcellus [3]) | IC50 (Cavia porcellus [4]) | Compound | Activity [5] |
| --- | --- | --- | --- | --- | --- |
| 0.2 nM | 900 nM | 0.3 µg/mL (≈ 0.635 µM) | > 100 µg/mL | O=C(NCc1ccccc1)Nc1cccc(CCNCC(O)c2ccc(O)c3[nH]c(=O)ccc23)c1 (stereo unspecified) | 15% |
| 0.13 nM | – | – | – | NC(=O)c1cccc(CNC(=O)Nc2cccc(CCNCC(O)c3ccc(O)c4[nH]c(=O)ccc34)c2)c1 (stereo unspecified) | 52% |
| 0.09 nM | > 10000 nM | 2 µg/mL (≈ 4.11 µM) | > 10 µg/mL | O=C(NCCc1ccccc1)Nc1cccc(CCNCC(O)c2ccc(O)c3[nH]c(=O)ccc23)c1 (stereo unspecified) | 9% |
| 0.07 nM | > 10000 nM | 0.2 µg/mL (≈ 0.436 µM) | 3 µg/mL (≈ 6.54 µM) | O=C(Nc1ccccc1)Nc1cccc(CCNCC(O)c2ccc(O)c3[nH]c(=O)ccc23)c1 (stereo unspecified) | 12% |
| 0.05 nM | > 10000 nM | 1 µg/mL (≈ 2 µM) | 3 µg/mL (≈ 5.99 µM) | O=C(NCCCc1ccccc1)Nc1cccc(CCNCC(O)c2ccc(O)c3[nH]c(=O)ccc23)c1 (stereo unspecified) | 2% |
